Measured values: PubChem BioAssay (NCI)
Several values for one entry are separate records, joined by “and”; a condition that tells them apart may be missing. Equal entries are not always repeated.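 Protocol summary: plate cells (96-well), add compound at 5 concentrations, incubate 48 h, interpolate endpoints linearly. At the GI50, growth is halved. At the TGI there is no net growth.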

What was measured:
Test in all cases: growth of human tumour cells (NCI), 48 h
786-0 renal = system: 786-0 renal
MDA-MB-468 breast = system: MDA-MB-468 breast
OVCAR-5 ovarian = system: OVCAR-5 ovarian
UO-31 renal = system: UO-31 renal
DU-145 prostate = system: DU-145 prostate
EKVX NSCLC = system: EKVX NSCLC
NCI-H226 lung = system: NCI-H226 lung
MOLT-4 leukemia = system: MOLT-4 leukemia
SK-MEL-28 melanoma = system: SK-MEL-28 melanoma
MCF7 breast = system: MCF7 breast
SF-539 CNS = system: SF-539 CNS
SW-620 colon = system: SW-620 colon
SNB-19 CNS = system: SNB-19 CNS
OVCAR-3 ovarian = system: OVCAR-3 ovarian
ACHN renal = system: ACHN renal
M14 melanoma = system: M14 melanoma
MDA-MB-231 breast = system: MDA-MB-231 breast
U251 CNS = system: U251 CNS
LOX IMVI melanoma = system: LOX IMVI melanoma
NCI-H23 lung = system: NCI-H23 lung
SK-MEL-5 melanoma = system: SK-MEL-5 melanoma
HCT-116 colon = system: HCT-116 colon
HT29 colon = system: HT29 colon
SF-295 CNS = system: SF-295 CNS
A498 renal = system: A498 renal
OVCAR-8 ovarian = system: OVCAR-8 ovarian
HOP-92 NSCLC = system: HOP-92 NSCLC
RXF 393 renal = system: RXF 393 renal
UACC-62 melanoma = system: UACC-62 melanoma
SF-268 CNS = system: SF-268 CNS
NCI-H522 lung = system: NCI-H522 lung
BT-549 breast = system: BT-549 breast
RPMI-8226 leukemia = system: RPMI-8226 leukemia
SK-OV-3 ovarian = system: SK-OV-3 ovarian
SN12C renal = system: SN12C renal
T-47D breast = system: T-47D breast
KM12 colon = system: KM12 colon
HL-60(TB) leukemia = system: HL-60(TB) leukemia
UACC-257 melanoma = system: UACC-257 melanoma
TK-10 renal = system: TK-10 renal
OVCAR-4 ovarian = system: OVCAR-4 ovarian
HCT-15 colon = system: HCT-15 colon
CAKI-1 renal = system: CAKI-1 renal
HS 578T breast = system: HS 578T breast
K-562 leukemia = system: K-562 leukemia
NCI-H460 lung = system: NCI-H460 lung
SR leukemia = system: SR leukemia
SNB-75 CNS = system: SNB-75 CNS
A549 NSCLC = system: A549 NSCLC
MALME-3M melanoma = system: MALME-3M melanoma
HOP-62 NSCLC = system: HOP-62 NSCLC
PC-3 prostate = system: PC-3 prostate
CCRF-CEM leukemia = system: CCRF-CEM leukemia
IGROV1 ovarian = system: IGROV1 ovarian
COLO 205 colon = system: COLO 205 colon
MDA-MB-435 = system: MDA-MB-435
HCC-2998 colon = system: HCC-2998 colon
SK-MEL-2 melanoma = system: SK-MEL-2 melanoma

## CC1(C)CC[C@]2(C(=O)Nc3ccc(Br)cc3)CC[C@]3(C)C(=CCC4[C@@]5(C)C[C@@H](O)[C@H](O)[C@@](C)(CO)C5CC[C@]43C)C2C1 (stereo partly drawn)
786-0 renal
  GI50: 16.7 µM
  TGI: 31.5 µM
MDA-MB-468 breast
  GI50: 15 µM
  TGI: 29.4 µM
OVCAR-5 ovarian
  GI50: 13.2 µM
  TGI: 27.2 µM
UO-31 renal
  GI50: 13.5 µM
  TGI: 33.4 µM
DU-145 prostate
  GI50: 26.7 µM
  TGI: 81 µM
EKVX NSCLC
  GI50: 16.6 µM
  TGI: 41.6 µM
NCI-H226 lung
  GI50: 16.8 µM
  TGI: 34.2 µM
MOLT-4 leukemia
  GI50: 13.2 µM
  TGI: 50 µM
SK-MEL-28 melanoma
  GI50: 16.1 µM
  TGI: 35.8 µM
MCF7 breast
  GI50: 14.9 µM
  TGI: 34.9 µM
SF-539 CNS
  GI50: 15.9 µM
  TGI: 30 µM
SW-620 colon
  GI50: 25.7 µM
  TGI: > 100 µM
SNB-19 CNS
  GI50: 25.8 µM
  TGI: > 100 µM
OVCAR-3 ovarian
  GI50: 17.1 µM
  TGI: 34 µM
ACHN renal
  GI50: 14.6 µM
  TGI: 28.2 µM
M14 melanoma
  GI50: 17.4 µM
  TGI: 40.8 µM
MDA-MB-231 breast
  GI50: 15.3 µM
  TGI: 30 µM
U251 CNS
  GI50: 16.6 µM
  TGI: 33.5 µM
LOX IMVI melanoma
  GI50: 17.8 µM
  TGI: 33 µM
NCI-H23 lung
  GI50: 17.1 µM
  TGI: 33.6 µM
SK-MEL-5 melanoma
  GI50: 15.7 µM
  TGI: 29.1 µM
HCT-116 colon
  GI50: 13.5 µM
  TGI: 26.9 µM
HT29 colon
  GI50: 12.9 µM
  TGI: 26.7 µM
SF-295 CNS
  GI50: 15.8 µM
  TGI: 30.6 µM
A498 renal
  GI50: 19 µM
  TGI: 34.6 µM
OVCAR-8 ovarian
  GI50: 24 µM
  TGI: 73.7 µM
HOP-92 NSCLC
  GI50: 14.5 µM
  TGI: 31.6 µM
RXF 393 renal
  GI50: 12.6 µM
  TGI: 25.6 µM
UACC-62 melanoma
  GI50: 12 µM
  TGI: 25.2 µM
SF-268 CNS
  GI50: 20.9 µM
  TGI: 71.9 µM
NCI-H522 lung
  GI50: 17.1 µM
  TGI: 34.6 µM
BT-549 breast
  GI50: 16.4 µM
  TGI: 33.2 µM
RPMI-8226 leukemia
  GI50: 19.5 µM
  TGI: 72.3 µM
SK-OV-3 ovarian
  GI50: 16.5 µM
  TGI: 38.6 µM
SN12C renal
  GI50: 16.6 µM
  TGI: 31.8 µM
T-47D breast
  GI50: 13.4 µM
  TGI: 30.4 µM
KM12 colon
  GI50: 18.1 µM
  TGI: 38.1 µM
HL-60(TB) leukemia
  GI50: 18.2 µM
  TGI: 50.7 µM
UACC-257 melanoma
  GI50: 20.2 µM
  TGI: 56.1 µM
TK-10 renal
  GI50: 19.8 µM
  TGI: 49.9 µM
OVCAR-4 ovarian
  GI50: 15.1 µM
  TGI: 35.8 µM
HCT-15 colon
  GI50: 14.6 µM
  TGI: 29 µM
CAKI-1 renal
  GI50: 12.6 µM
  TGI: 40.8 µM
HS 578T breast
  GI50: 20.1 µM
  TGI: 63.5 µM
K-562 leukemia
  GI50: 23.1 µM
  TGI: > 100 µM
NCI-H460 lung
  GI50: 17.5 µM
  TGI: 38.3 µM
SR leukemia
  GI50: 19.1 µM
  TGI: > 100 µM
SNB-75 CNS
  GI50: 14.5 µM
  TGI: 60.7 µM
A549 NSCLC
  GI50: 30.5 µM
  TGI: > 100 µM
MALME-3M melanoma
  GI50: 16.1 µM
  TGI: 30.4 µM
HOP-62 NSCLC
  GI50: 15 µM
  TGI: 31.8 µM
PC-3 prostate
  GI50: 14.5 µM
  TGI: 40.8 µM
CCRF-CEM leukemia
  GI50: 23.2 µM
  TGI: 75.9 µM
IGROV1 ovarian
  GI50: 17.1 µM
  TGI: 37.7 µM
COLO 205 colon
  GI50: 15.2 µM
  TGI: 32.8 µM
MDA-MB-435
  GI50: 15.9 µM
  TGI: 31.4 µM
HCC-2998 colon
  GI50: 16.2 µM
  TGI: 31 µM

## O=c1oc2ccc(-c3ccc(F)cc3F)cc2c(=O)n1-c1ccc(Cl)c(C(F)(F)F)c1
MDA-MB-468 breast
  GI50: 2.4 µM and 2.82 µM
  TGI: 6.08 µM and 7.81 µM
OVCAR-5 ovarian
  GI50: 5.98 µM
  TGI: 21.4 µM
UO-31 renal
  GI50: 3.45 µM
  TGI: 14 µM
DU-145 prostate
  GI50: 4.03 µM
  TGI: 14.3 µM
EKVX NSCLC
  GI50: 2.85 µM
  TGI: 12.2 µM
NCI-H226 lung
  GI50: 2.11 µM
  TGI: 12.5 µM
MOLT-4 leukemia
  GI50: 2.85 µM
  TGI: 15 µM
SK-MEL-28 melanoma
  GI50: 4.3 µM
  TGI: 15.9 µM
MCF7 breast
  GI50: 2.7 µM
  TGI: 10.4 µM
SF-539 CNS
  GI50: 3.9 µM
  TGI: 14.7 µM
SW-620 colon
  GI50: 3.93 µM
  TGI: 14.9 µM
SNB-19 CNS
  GI50: 3.28 µM
  TGI: 13.4 µM
OVCAR-3 ovarian
  GI50: 3.22 µM
  TGI: 11 µM
ACHN renal
  GI50: 3.24 µM
  TGI: 12.3 µM
M14 melanoma
  GI50: 0.0652 µM
  TGI: 3.29 µM
MDA-MB-231 breast
  GI50: 2.35 µM
  TGI: 6.97 µM
U251 CNS
  GI50: 3.23 µM
  TGI: 11.1 µM
LOX IMVI melanoma
  GI50: 3.9 µM
  TGI: 13.9 µM
NCI-H23 lung
  GI50: 2.47 µM
  TGI: 8.59 µM
SK-MEL-5 melanoma
  GI50: 1.96 µM
  TGI: 4.04 µM
HT29 colon
  GI50: 16.7 µM
  TGI: 31.4 µM
SF-295 CNS
  GI50: 7.02 µM
  TGI: 20.5 µM
A498 renal
  GI50: 2.95 µM
  TGI: 8.94 µM
OVCAR-8 ovarian
  GI50: 4.38 µM
  TGI: 17.9 µM
RXF 393 renal
  GI50: 2.21 µM
  TGI: 6.51 µM
UACC-62 melanoma
  GI50: 2.89 µM
  TGI: 10.4 µM
SF-268 CNS
  GI50: 3.39 µM
  TGI: 11.9 µM
NCI-H522 lung
  GI50: 2.52 µM
  TGI: 7.84 µM
SK-OV-3 ovarian
  GI50: 2.3 µM
  TGI: 6.3 µM
SN12C renal
  GI50: 2.89 µM
  TGI: 9.46 µM
T-47D breast
  GI50: 2.42 µM
  TGI: 6.76 µM
KM12 colon
  GI50: 3.86 µM
  TGI: 14.8 µM
HL-60(TB) leukemia
  GI50: 4.66 µM
  TGI: 47.2 µM
UACC-257 melanoma
  GI50: 3.41 µM
  TGI: 14.4 µM
TK-10 renal
  GI50: 3.98 µM
  TGI: 11.7 µM
OVCAR-4 ovarian
  GI50: 4.19 µM
  TGI: 16.7 µM
SK-MEL-2 melanoma
  GI50: 2 µM
  TGI: 5.02 µM
HCT-15 colon
  GI50: 3.19 µM
  TGI: 12.4 µM
CAKI-1 renal
  GI50: 2.29 µM
  TGI: 8.98 µM
HS 578T breast
  GI50: 2.6 µM
  TGI: 8.26 µM
K-562 leukemia
  GI50: 3.18 µM
  TGI: > 100 µM
NCI-H460 lung
  GI50: 3.27 µM
  TGI: 11.2 µM
SR leukemia
  GI50: 1.79 µM
  TGI: 5.54 µM
SNB-75 CNS
  GI50: 2.23 µM
  TGI: 13.4 µM
A549 NSCLC
  GI50: 3.53 µM
  TGI: 13.1 µM
MALME-3M melanoma
  GI50: 2.62 µM
  TGI: 7.28 µM
HOP-62 NSCLC
  GI50: 4.18 µM
  TGI: 14.6 µM
PC-3 prostate
  GI50: 2.04 µM
  TGI: 10.9 µM
IGROV1 ovarian
  GI50: 4.42 µM
  TGI: 15.8 µM
COLO 205 colon
  GI50: 16.5 µM
  TGI: 30.9 µM
MDA-MB-435
  GI50: 3.49 µM
  TGI: 12.6 µM
HCC-2998 colon
  GI50: 3.58 µM
  TGI: 12.8 µM
